From paper PMC5218480 (PLoS ONE, 2017) come the findings set out here.

Each structure is given as a SMILES string.

The test system of this assay is MV-4-11 cells. Briefly: Gene expression microarray analysis (Affymetrix PrimeView) and GSEA. The assay is classed as cell-based, human. The arrangement: RFU PODN (11730768_x_at) / Fold change /veh PODN (11730768_x_at) / RFU LINC00158 (11744669_a_at) / Fold change /veh LINC00158 (11744669_a_at) / RFU DUSP10 (11751237_a_at) / Fold change /veh DUSP10 (11751237_a_at) / RFU ID3 (11757404_x_at) / Fold change /veh ID3 (11757404_x_at) / RFU PLEKHG5 (11737974_s_at) / Fold change /veh PLEKHG5 (11737974_s_at) / RFU LRRC4B (11730491_at) / Fold change /veh LRRC4B (11730491_at) / RFU GIMAP4 (11747438_a_at) / Fold change /veh GIMAP4 (11747438_a_at) / RFU KRT8 (11758183_x_at) / Fold change /veh KRT8 (11758183_x_at) / RFU CNN1 (11734310_a_at) / Fold change /veh CNN1 (11734310_a_at) / RFU VPS37D (11726825_at) / Fold change /veh VPS37D (11726825_at) / RFU C10orf10 (11716522_x_at) / Fold change /veh C10orf10 (11716522_x_at) / RFU KIR2DL2 /// KIR2DL4 /// KIR2DL5A /// KIR2DL5B /// KIR2DS1 /// KIR2DS2 /// KIR2DS3 /// KIR2DS4 /// KIR3DL3 /// KIR3DL3 /// KIR3DS1 (11738374_at) / Fold change /veh KIR2DL2 /// KIR2DL4 /// KIR2DL5A /// KIR2DL5B /// KIR2DS1 /// KIR2DS2 /// KIR2DS3 /// KIR2DS4 /// KIR3DL3 /// KIR3DL3 /// KIR3DS1 (11738374_at) / RFU C1QL1 (11718748_at) / Fold change /veh C1QL1 (11718748_at) / RFU TMPRSS4 (11747572_a_at) / Fold change /veh TMPRSS4 (11747572_a_at) / RFU HAMP (11756126_x_at) / Fold change /veh HAMP (11756126_x_at) / RFU RNFT2 (11725882_a_at) / Fold change /veh RNFT2 (11725882_a_at) / RFU NR4A2 (11747474_a_at) / Fold change /veh NR4A2 (11747474_a_at) / RFU ABCC12 (11746883_a_at) / Fold change /veh ABCC12 (11746883_a_at) / RFU TMEM136 (11760407_x_at) / Fold change /veh TMEM136 (11760407_x_at) / RFU CLDN22 /// WWC2 (11732394_at) / Fold change /veh CLDN22 /// WWC2 (11732394_at) / RFU HLA-DPB1 (11760878_x_at) / Fold change /veh HLA-DPB1 (11760878_x_at) / RFU SPINT1 (11716480_a_at) / Fold change /veh SPINT1 (11716480_a_at) / RFU GAP43 (11754022_s_at) / Fold change /veh GAP43 (11754022_s_at) / RFU A4GNT (11735810_at) / Fold change /veh A4GNT (11735810_at) / RFU PRB3 (11715151_x_at) / Fold change /veh PRB3 (11715151_x_at) / RFU TUBB4B (11761932_at) / Fold change /veh TUBB4B (11761932_at) / RFU CAPN14 (11732068_a_at) / Fold change /veh CAPN14 (11732068_a_at) / RFU TMCC2 (11721928_a_at) / Fold change /veh TMCC2 (11721928_a_at) / RFU IRGQ (11745062_a_at) / Fold change /veh IRGQ (11745062_a_at) / RFU FAM174B (11720279_a_at) / Fold change /veh FAM174B (11720279_a_at) / RFU TMPRSS4 (11748680_a_at) / Fold change /veh TMPRSS4 (11748680_a_at) / RFU FAM212B (11763350_a_at) / Fold change /veh FAM212B (11763350_a_at) / RFU PLEKHG5 (11743358_a_at) / Fold change /veh PLEKHG5 (11743358_a_at) / RFU ZSCAN30 (11745921_a_at) / Fold change /veh ZSCAN30 (11745921_a_at) / RFU CMKLR1 (11741424_a_at) / Fold change /veh CMKLR1 (11741424_a_at) / RFU LOC101060620 /// MAPK8IP1 (11723275_at) / Fold change /veh LOC101060620 /// MAPK8IP1 (11723275_at) / RFU SPTSSB (11747773_x_at) / Fold change /veh SPTSSB (11747773_x_at) / RFU PRSS12 (11739890_at) / Fold change /veh PRSS12 (11739890_at) / RFU BIN1 (11741810_x_at) / Fold change /veh BIN1 (11741810_x_at) / RFU WNT11 (11732464_a_at) / Fold change /veh WNT11 (11732464_a_at) / RFU C10orf10 (11716521_a_at) / Fold change /veh C10orf10 (11716521_a_at) / RFU C5orf56 (11738089_at) / Fold change /veh C5orf56 (11738089_at) / RFU CYB561 (11721691_x_at) / Fold change /veh CYB561 (11721691_x_at) / RFU ANKRD19P (11752326_a_at) / Fold change /veh ANKRD19P (11752326_a_at) / RFU OR2T12 /// OR2T33 /// OR2T8 (11738714_s_at) / Fold change /veh OR2T12 /// OR2T33 /// OR2T8 (11738714_s_at) / RFU VCAN (11748164_a_at) / Fold change /veh VCAN (11748164_a_at) / RFU JSRP1 (11732532_at) / Fold change /veh JSRP1 (11732532_at) / RFU KRTAP10-11 (11738290_x_at) / Fold change /veh KRTAP10-11 (11738290_x_at) / RFU MYO3A (11730013_a_at) / Fold change /veh MYO3A (11730013_a_at) / RFU EBF3 (11725865_a_at) / Fold change /veh EBF3 (11725865_a_at) / RFU CAMK2N1 (11719241_x_at) / Fold change /veh CAMK2N1 (11719241_x_at) / RFU C5orf56 (11738088_a_at) / Fold change /veh C5orf56 (11738088_a_at) / RFU OLFML3 (11715873_a_at) / Fold change /veh OLFML3 (11715873_a_at) / RFU LOC100653217 /// NTM (11731650_a_at) / Fold change /veh LOC100653217 /// NTM (11731650_a_at) / RFU MAPK11 (11762145_a_at) / Fold change /veh MAPK11 (11762145_a_at) / RFU FIZ1 (11724087_x_at) / Fold change /veh FIZ1 (11724087_x_at) / RFU OASL (11726364_x_at) / Fold change /veh OASL (11726364_x_at) / RFU SOX15 (11748057_x_at) / Fold change /veh SOX15 (11748057_x_at) / RFU CD79A (11719716_a_at) / Fold change /veh CD79A (11719716_a_at) / RFU HIST1H1D (11736915_at) / Fold change /veh HIST1H1D (11736915_at) / RFU CASKIN2 (11723855_a_at) / Fold change /veh CASKIN2 (11723855_a_at) / RFU LOC730098 (11760151_x_at) / Fold change /veh LOC730098 (11760151_x_at) / RFU OR4N2 (11742367_at) / Fold change /veh OR4N2 (11742367_at) / RFU PRRT2 (11749266_a_at) / Fold change /veh PRRT2 (11749266_a_at) / RFU SNX32 (11753110_a_at) / Fold change /veh SNX32 (11753110_a_at) / RFU CDHR5 (11726645_a_at) / Fold change /veh CDHR5 (11726645_a_at) / RFU RCAN1 (11760418_a_at) / Fold change /veh RCAN1 (11760418_a_at) / RFU FAM167A (11723789_a_at) / Fold change /veh FAM167A (11723789_a_at) / RFU FAM26E (11764081_at) / Fold change /veh FAM26E (11764081_at) / RFU ISYNA1 (11749810_s_at) / Fold change /veh ISYNA1 (11749810_s_at) / RFU ACY1 (11761880_at) / Fold change /veh ACY1 (11761880_at) / RFU 11764098_at / Fold change /veh 11764098_at / RFU SAMD14 (11745864_x_at) / Fold change /veh SAMD14 (11745864_x_at) / RFU NPB (11741838_a_at) / Fold change /veh NPB (11741838_a_at) / RFU TMPRSS6 (11731388_a_at) / Fold change /veh TMPRSS6 (11731388_a_at) / RFU KRTAP10-2 (11738614_at) / Fold change /veh KRTAP10-2 (11738614_at) / RFU ARHGAP8 /// PRR5-ARHGAP8 (11727945_x_at) / Fold change /veh ARHGAP8 /// PRR5-ARHGAP8 (11727945_x_at) / RFU KRTAP5-7 /// NADSYN1 (11734609_at) / Fold change /veh KRTAP5-7 /// NADSYN1 (11734609_at) / RFU RASL12 (11751679_a_at) / Fold change /veh RASL12 (11751679_a_at) / RFU CDKN2B (11736163_a_at) / Fold change /veh CDKN2B (11736163_a_at) / RFU PRF1 (11729649_at) / Fold change /veh PRF1 (11729649_at) / RFU, ZNF638 /// ZNF638-IT1 / Fold change vs veh, ZNF638 /// ZNF638-IT1 / RFU, PANK3 / Fold change vs veh, PANK3 / RFU, SH3YL1 / Fold change vs veh, SH3YL1 / RFU, ZEB2 / Fold change vs veh, ZEB2 / RFU, NRIP1 / Fold change vs veh, NRIP1 / RFU, PTTG1IP / Fold change vs veh, PTTG1IP / RFU, CAPN2 / Fold change vs veh, CAPN2 / RFU, MED14 / Fold change vs veh, MED14 / RFU, SNORA58 / Fold change vs veh, SNORA58 / RFU, C1orf63 / Fold change vs veh, C1orf63 / RFU, LRRFIP1 / Fold change vs veh, LRRFIP1 / RFU, NDUFAF7 / Fold change vs veh, NDUFAF7 / RFU, SLC12A2 / Fold change vs veh, SLC12A2 / RFU, IBTK / Fold change vs veh, IBTK / RFU, ESF1 / Fold change vs veh, ESF1 / Fold change vs veh, TMEM50B / RFU, TAOK1 / Fold change vs veh, TAOK1 / RFU, ACBD3 / Fold change vs veh, ACBD3 / RFU, TMA16 / Fold change vs veh, TMA16 / RFU, RWDD3 / Fold change vs veh, RWDD3 / RFU, BCAT1 / Fold change vs veh, BCAT1 / RFU, EDEM3 / Fold change vs veh, EDEM3 / RFU, TMEM33 / Fold change vs veh, TMEM33 / RFU, WDR75 / Fold change vs veh, WDR75 / RFU, AHCTF1 / Fold change vs veh, AHCTF1 / RFU, TFRC / Fold change vs veh, TFRC / RFU, ZDHHC17 / Fold change vs veh, ZDHHC17 / RFU, NOM1 / Fold change vs veh, NOM1 / RFU, ARL8B / Fold change vs veh, ARL8B / RFU, ZBTB11 / Fold change vs veh, ZBTB11 / RFU, TAMM41 / Fold change vs veh, TAMM41 / RFU, KIAA1704 /// LOC100996395 / Fold change vs veh, KIAA1704 /// LOC100996395 / RFU, ING1 / Fold change vs veh, ING1 / RFU, TRMT61B / Fold change vs veh, TRMT61B / RFU, FUBP3 / Fold change vs veh, FUBP3 / RFU, TP53 / Fold change vs veh, TP53 / RFU, TNKS2 / Fold change vs veh, TNKS2 / RFU, ZFP14 / Fold change vs veh, ZFP14 / RFU, ACTR2 / Fold change vs veh, ACTR2 / RFU, PPP3R1 / Fold change vs veh, PPP3R1 / RFU, PIK3R1 / Fold change vs veh, PIK3R1 / RFU, HNRNPA1 / Fold change vs veh, HNRNPA1 / RFU, RNF170 / Fold change vs veh, RNF170 / RFU, ZNF28 / Fold change vs veh, ZNF28 / RFU, RNGTT / Fold change vs veh, RNGTT / RFU, OGT / Fold change vs veh, OGT / RFU, BRD1 / Fold change vs veh, BRD1 / RFU, MARS / Fold change vs veh, MARS / RFU, ZNF655 / Fold change vs veh, ZNF655 / RFU, FAHD1 / Fold change vs veh, FAHD1 / RFU, BDP1 / Fold change vs veh, BDP1 / RFU, LRRCC1 / Fold change vs veh, LRRCC1 / RFU, ARID1A / Fold change vs veh, ARID1A / RFU, ZNF146 / Fold change vs veh, ZNF146 / RFU, ZNF330 / Fold change vs veh, ZNF330 / RFU, GPN3 / Fold change vs veh, GPN3 / RFU, C9orf123 / Fold change vs veh, C9orf123 / RFU, N4BP2L2 / Fold change vs veh, N4BP2L2 / RFU, ARFIP1 / Fold change vs veh, ARFIP1 / RFU, FAM179B / Fold change vs veh, FAM179B / RFU, BCL10 / Fold change vs veh, BCL10 / RFU, UHRF1BP1L / Fold change vs veh, UHRF1BP1L / RFU, BET1 / Fold change vs veh, BET1 / RFU, CNOT2 / Fold change vs veh, CNOT2 / RFU, ZNF268 / Fold change vs veh, ZNF268 / Fold change vs veh, ZNF507 / RFU, DGCR2 / Fold change vs veh, DGCR2 / RFU, WDSUB1 / Fold change vs veh, WDSUB1 / Fold change vs veh, HSP90B1 /// MIR3652 / RFU, ADSS / Fold change vs veh, ADSS / RFU, GK / Fold change vs veh, GK / RFU, ZNF148 / Fold change vs veh, ZNF148 / RFU, TAF9 / Fold change vs veh, TAF9 / RFU, SLC1A5 / Fold change vs veh, SLC1A5 / RFU, SLMO2 / Fold change vs veh, SLMO2 / RFU, ABCC4 / Fold change vs veh, ABCC4 / RFU, LOC101060439 /// RAP1B / Fold change vs veh, LOC101060439 /// RAP1B / RFU, RFX7 / Fold change vs veh, RFX7 / RFU, GTPBP10 / Fold change vs veh, GTPBP10 / RFU, CNEP1R1 / Fold change vs veh, CNEP1R1 / RFU, BIVM-ERCC5 /// ERCC5 / Fold change vs veh, BIVM-ERCC5 /// ERCC5 / RFU, ILF3 / Fold change vs veh, ILF3 / RFU 11762660_at / Fold change /veh 11762660_at / RFU VCAN (11757783_s_at) / Fold change /veh VCAN (11757783_s_at) / RFU DDX43 (11728927_at) / Fold change /veh DDX43 (11728927_at) / RFU KRT8 (11758188_x_at) / Fold change /veh KRT8 (11758188_x_at) / RFU NKD1 (11759106_at) / Fold change /veh NKD1 (11759106_at) / RFU SRD5A1 (11742802_a_at) / Fold change /veh SRD5A1 (11742802_a_at) / RFU TPSAB1 /// TPSB2 (11721975_s_at) / Fold change /veh TPSAB1 /// TPSB2 (11721975_s_at) / RFU GSTM3 (11746129_a_at) / Fold change /veh GSTM3 (11746129_a_at) / RFU IL23R (11737362_x_at) / Fold change /veh IL23R (11737362_x_at) / RFU TMEM51 (11727254_a_at) / Fold change /veh TMEM51 (11727254_a_at) / RFU PIWIL2 (11732686_x_at) / Fold change /veh PIWIL2 (11732686_x_at) / RFU ORM1 (11744905_x_at) / Fold change /veh ORM1 (11744905_x_at) / RFU CCDC152 (11743942_at) / Fold change /veh CCDC152 (11743942_at) / RFU ECM1 (11717891_a_at) / Fold change /veh ECM1 (11717891_a_at) / RFU IL23R (11748794_a_at) / Fold change /veh IL23R (11748794_a_at) / RFU TNFAIP8L3 (11732012_x_at) / Fold change /veh TNFAIP8L3 (11732012_x_at) / RFU MBOAT4 (11741988_at) / Fold change /veh MBOAT4 (11741988_at) / RFU 11764193_at / Fold change /veh 11764193_at / RFU TMEM53 (11763286_at) / Fold change /veh TMEM53 (11763286_at) / RFU MAGEB2 (11727129_at) / Fold change /veh MAGEB2 (11727129_at) / RFU TMEM200A (11744735_a_at) / Fold change /veh TMEM200A (11744735_a_at) / RFU CCDC152 (11751479_a_at) / Fold change /veh CCDC152 (11751479_a_at) / RFU FAM211A (11726209_a_at) / Fold change /veh FAM211A (11726209_a_at) / RFU RGS16 (11746705_a_at) / Fold change /veh RGS16 (11746705_a_at) / RFU VCAN (11755009_s_at) / Fold change /veh VCAN (11755009_s_at) / RFU RHOB (11743442_s_at) / Fold change /veh RHOB (11743442_s_at) / RFU RGS16 (11720943_a_at) / Fold change /veh RGS16 (11720943_a_at) / RFU RGS16 (11720944_at) / Fold change /veh RGS16 (11720944_at) / RFU, VPS4B / Fold change vs veh, VPS4B / RFU, CREB1 / Fold change vs veh, CREB1 / RFU, DNAJC13 / Fold change vs veh, DNAJC13 / RFU, GNAQ / Fold change vs veh, GNAQ / RFU, CDK5R1 / Fold change vs veh, CDK5R1 / RFU, ZRANB3 / Fold change vs veh, ZRANB3 / RFU, CUL4A / Fold change vs veh, CUL4A / RFU, CCNY / Fold change vs veh, CCNY / RFU, UFL1 / Fold change vs veh, UFL1 / RFU, COG3 / Fold change vs veh, COG3 / RFU, DIAPH2 / Fold change vs veh, DIAPH2 / RFU, SKA2 / Fold change vs veh, SKA2 / RFU, AFF3 / Fold change vs veh, AFF3 / RFU, LMF1 / Fold change vs veh, LMF1 / RFU, IPO11 / Fold change vs veh, IPO11 / RFU, DFFB / Fold change vs veh, DFFB / RFU, FOXP1 / Fold change vs veh, FOXP1 / RFU, CARD8 / Fold change vs veh, CARD8 / RFU, STRN3 / Fold change vs veh, STRN3 / RFU, ADK / Fold change vs veh, ADK / RFU, RASSF2 / Fold change vs veh, RASSF2 / RFU, WIPF1 / Fold change vs veh, WIPF1 / RFU, LARP1B / Fold change vs veh, LARP1B / RFU, RASA1 / Fold change vs veh, RASA1 / RFU, RB1 / Fold change vs veh, RB1 / RFU, PPFIA1 / Fold change vs veh, PPFIA1 / RFU, MAT2A / Fold change vs veh, MAT2A / RFU, CCT5 / Fold change vs veh, CCT5 / RFU, WDR92 / Fold change vs veh, WDR92 / RFU, CUX1 / Fold change vs veh, CUX1 / RFU, TTC7A / Fold change vs veh, TTC7A / RFU, TMEM135 / Fold change vs veh, TMEM135 / RFU, DEPTOR / Fold change vs veh, DEPTOR / RFU, CPM / Fold change vs veh, CPM / RFU, DNAJB6 / Fold change vs veh, DNAJB6 / RFU, CACNA2D3 / Fold change vs veh, CACNA2D3 / RFU, DTX4 / Fold change vs veh, DTX4 / RFU, TFCP2 / Fold change vs veh, TFCP2 / RFU, GMCL1 /// GMCL1P1 / Fold change vs veh, GMCL1 /// GMCL1P1 / RFU, AEBP2 / Fold change vs veh, AEBP2 / RFU, SNHG1 /// SNORD22 /// SNORD25 /// SNORD26 /// SNORD27 /// SNORD28 /// SNORD29 /// SNORD31 / Fold change vs veh, SNHG1 /// SNORD22 /// SNORD25 /// SNORD26 /// SNORD27 /// SNORD28 /// SNORD29 /// SNORD31 / Fold change (Aza/veh), C12orf56 (ProbeSet 11735607_a_at) / Fold change (ACY-1035/veh), C12orf56 (ProbeSet 11735607_a_at) / Fold change (Aza/veh), FGFR1OP (ProbeSet 11751329_s_at) / Fold change (ACY-1035/veh), FGFR1OP (ProbeSet 11751329_s_at) / Fold change (Aza/veh), VPS36 (ProbeSet 11739960_a_at) / Fold change (ACY-1035/veh), VPS36 (ProbeSet 11739960_a_at) / RFU SYPL1 (11715823_x_at) / Fold change /veh SYPL1 (11715823_x_at) / RFU IGFBP7 (11715501_s_at) / Fold change /veh IGFBP7 (11715501_s_at) / RFU REEP3 (11722064_at) / Fold change /veh REEP3 (11722064_at) / RFU IGLL1 (11728026_x_at) / Fold change /veh IGLL1 (11728026_x_at): dose or concentration left out as unconfirmed. The settings on record: MV-4-11 cells, 48 hours.

With `Nc1ccc(-c2cccs2)cc1NC(=O)c1ccc2c(c1)cc(C1CC1)n2CCN1CCOCC1` [ACY-1035], the “RFU TMEM53 (11763286_at)” value was determined as 16.39 RFU.
